Data from the supplement of paper PMC10307832.

Assays:
Assay in all cases: relative viability (nuclei count vs DMSO), 5 days (fraction); higher = more cells survive
HCC-78 = test system: HCC-78
Procedure, shortened: (§1)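 Relative viability is defined as nuclei in treated wells over nuclei in vehicle wells. Duplicate plates were run and medians reported. Lung cancer cell lines in 1536-well plates were dosed by pin tool one day after seeding, with one drug or with a fixed anchor-drug dose plus five library-drug doses (not always all listed) in √10 steps, and nuclei were counted after 5 days.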

CAL-12T = test system: CAL-12T
Procedure, shortened: as §1

HOP-62 = test system: HOP-62
Procedure, shortened: as §1

NCI-H1944 = test system: NCI-H1944
Procedure, shortened: as §1

NCI-H2347 = test system: NCI-H2347
Procedure, shortened: as §1

SK-LU-1 = test system: SK-LU-1
Procedure, shortened: as §1

201T = test system: 201T
Procedure, shortened: as §1

BEN = test system: BEN
Procedure, shortened: as §1

NCI-H1915 = test system: NCI-H1915
Procedure, shortened: as §1

NCI-H838 = test system: NCI-H838
Procedure, shortened: as §1

NCI-H1355 = test system: NCI-H1355
Procedure, shortened: as §1

## Cc1csc(=NC2CCCCC2)n1/N=C/c1ccc(O)c(O)c1O [MIM1] + O=C(c1cc(Cc2n[nH]c(=O)c3ccccc23)ccc1F)N1CCN(C(=O)C2CC2)CC1 [Olaparib] (partner 8 µM)
HCC-78; first compound 0.2 µM
  relative viability: 0.716
HCC-78; first compound 2 µM
  relative viability: 0.906
HCC-78; first compound 6.325 µM
  relative viability: 0.47
HCC-78; first compound 20 µM
  relative viability: 0.462
CAL-12T; first compound 0.2 µM
  relative viability: 0.708
CAL-12T; first compound 0.6325 µM
  relative viability: 0.685
CAL-12T; first compound 2 µM
  relative viability: 0.682
CAL-12T; first compound 6.325 µM
  relative viability: 0.505
CAL-12T; first compound 20 µM
  relative viability: 0.396
HOP-62; first compound 0.2 µM
  relative viability: 0.424
HOP-62; first compound 0.6325 µM
  relative viability: 0.529
HOP-62; first compound 2 µM
  relative viability: 0.169
HOP-62; first compound 6.325 µM
  relative viability: 0.293
HOP-62; first compound 20 µM
  relative viability: 0.115
NCI-H1944; first compound 0.2 µM
  relative viability: 0.405
NCI-H1944; first compound 0.6325 µM
  relative viability: 0.422
NCI-H1944; first compound 2 µM
  relative viability: 0.352
NCI-H1944; first compound 6.325 µM
  relative viability: 0.32
NCI-H1944; first compound 20 µM
  relative viability: 0.131
NCI-H2347; first compound 0.2 µM
  relative viability: 0.525
NCI-H2347; first compound 0.6325 µM
  relative viability: 0.559
NCI-H2347; first compound 2 µM
  relative viability: 0.653
NCI-H2347; first compound 6.325 µM
  relative viability: 0.508
NCI-H2347; first compound 20 µM
  relative viability: 0.469
SK-LU-1; first compound 0.2 µM
  relative viability: 0.447
SK-LU-1; first compound 0.6325 µM
  relative viability: 0.559
SK-LU-1; first compound 2 µM
  relative viability: 0.575
SK-LU-1; first compound 6.325 µM
  relative viability: 0.281
SK-LU-1; first compound 20 µM
  relative viability: 0.299
201T; first compound 0.2 µM
  relative viability: 0.833
201T; first compound 0.6325 µM
  relative viability: 0.863
201T; first compound 2 µM
  relative viability: 0.831
201T; first compound 6.325 µM
  relative viability: 0.415
201T; first compound 20 µM
  relative viability: 0.396
BEN; first compound 0.2 µM
  relative viability: 1.07
BEN; first compound 0.6325 µM
  relative viability: 1.18
BEN; first compound 2 µM
  relative viability: 1.09
BEN; first compound 6.325 µM
  relative viability: 1.01
BEN; first compound 20 µM
  relative viability: 0.239
NCI-H1915; first compound 0.2 µM
  relative viability: 0.255
NCI-H1915; first compound 0.6325 µM
  relative viability: 0.248
NCI-H1915; first compound 2 µM
  relative viability: 0.236
NCI-H1915; first compound 6.325 µM
  relative viability: 0.203
NCI-H1915; first compound 20 µM
  relative viability: 0.133
NCI-H838; first compound 0.2 µM
  relative viability: 0.731
NCI-H838; first compound 0.6325 µM
  relative viability: 0.944
NCI-H838; first compound 2 µM
  relative viability: 0.85
NCI-H838; first compound 6.325 µM
  relative viability: 0.609
NCI-H838; first compound 20 µM
  relative viability: 0.237
NCI-H1355; first compound 0.2 µM
  relative viability: 0.731
NCI-H1355; first compound 0.6325 µM
  relative viability: 0.664
NCI-H1355; first compound 2 µM
  relative viability: 0.803
NCI-H1355; first compound 6.325 µM
  relative viability: 0.603
NCI-H1355; first compound 20 µM
  relative viability: 0.297
